Results on eight compounds are retold here after patent US20050119337A1, “Methods of application of Schisandrin B in the preparation of anticancer medications” (priority 2003, published 2005).

Like-named read-outs stand apart in the source and are kept apart here.

Broadly, the IC50 is the concentration that inhibits the measured activity by half.

Common to all, as to assay type: cell-based
One experiment deals with K562/vcr. Kind of experiment: Reversal of drug resistance, MTT assay, 48 h. The following applies: for IC50: Homo sapiens, read-out: IC50 Control; for IC50 / IC50 Schisandrin B: 48 h; for RF (Reversal Folds): IC50 in the absence of Schisandrin B divided by IC50 in the presence of Schisandrin B (10 μg/ml); for IC50 Schisandrin B: anticancer drug toward K562/vcr in the presence of Schisandrin B (10 μg/ml). As to the method: To illustrate a method for reversal of drug resistance by application of Schisandrin B, cell lines K562/adr, K562/vcr (X. […] H. […] Cells were cultured in RPMI-1640 medium containing 10% fetal calf serum. […] The logarithmic growing cells were seeded into a 96 well plate (20,000 cells/well). Specific anticancer drugs (set forth in Table 1) and Schisandrin B in combination were added into the wells containing the select cell lines. […] Cell viability was assessed by MTT assays as described in X.
For orientation: Tetrazolium dyes change colour on reduction, which living cells bring about.

Experiment [1] deals with human leukemia MDR cell line K562/adr. Kind of experiment: Reversal of drug resistance of K562/adr, MTT assay, 72 h. The following applies: for IC50: Homo sapiens, read-out: IC50 Control; for RF (Schisandrin B): IC50 in the absence divided by IC50 in the presence of Schisandrin B (10 μg/ml); for RF (verapamil): IC50 in the absence divided by IC50 in the presence of verapamil (6 μg/ml); for IC50 Schisandrin B: anticancer drug in the presence of Schisandrin B (10 μg/ml); for IC50 verapamil: anticancer drug in the presence of verapamil (6 μg/ml). As to the method:
(§1) In this embodiment, the IC50 of anticancer drugs in the presence or absence of Schisandrin B toward MDR cells was determined.
(§2) MTT assays were carried out in triplicate against human leukemia MDR cell line K562/adr and human epidermoid carcinoma MDR cell line KBV200. MTT assays as described previously (X. Hu, et al., Chemotherapy 41:296-305 (1995)) were used to determine the cytotoxicity of each anticancer drug in the presence or absence of Schisandrin B or verapmil.
Cells were treated with specific anticancer drugs as set forth therein. “Ctrl” represents control cells treated with anticancer drugs in the absence of Schisandrin B or verapamil. “SchB” represents cells treated with anticancer drugs in the presence of Schisandrin B (10 μg/ml).

Experiment [2] relates to human epidermoid carcinoma MDR cell line KBV200. The experiment in a line: Reversal of drug resistance of KBV200, MTT assay, 72 h. The following applies: for IC50: Homo sapiens, read-out: IC50 Control; for RF (Schisandrin B): IC50 in the absence / IC50 in the presence of Schisandrin B (10 μg/ml); for RF (Schisandrin B) / RF (verapamil) / IC50 Schisandrin B / IC50 verapamil: KBV200; for RF (verapamil): IC50 in the absence / IC50 in the presence of verapamil (6 μg/ml); for IC50 Schisandrin B: anticancer drug in the presence of Schisandrin B (10 μg/ml); for IC50 verapamil: anticancer drug in the presence of verapamil (6 μg/ml). On the procedure: as §1, §2
Cells were treated with specific anticancer drugs as set forth therein. […] “SchB” represents cells treated with anticancer drugs in the presence of Schisandrin B (10 μg/ml).

The mark [3] stands for this setting: anticancer drug toward K562/vcr in the absence of Schisandrin B.
Where [4] appears, read: anticancer drug alone, K562/adr, 72 h.
[5] abbreviates: anticancer drug alone, KBV200, 72 h.

Turning to `COc1cccc2c1C(=O)c1c(O)c3c(c(O)c1C2=O)C[C@@](O)(C(C)=O)C[C@@H]3O[C@H]1C[C@H](N)[C@H](O)[C@H](C)O1` [Daunorubicin, daunorubicin], the IC50 worked out at 0.45 ± 0.25 µg/mL with K562/vcr (K562/VCR); 0.505 ± 0.0728 µg/mL in experiment [1] (K562/Adr, 72 h); 0.305 ± 0.0728 µg/mL in experiment [2] (KBv200, 72 h). Further, the “RF (Reversal Folds)” value with K562/vcr is listed as 40.9. Besides, the “IC50 Schisandrin B” value is 0.011 ± 0.0001 µg/mL with K562/vcr, 0.0977 ± 0.063 µg/mL in experiment [1] (K562/adr) and 0.0913 ± 0.003 µg/mL in experiment [2]. In addition, the “RF (Schisandrin B)” value in experiment [1] (K562/adr) amounted to 5.16; in experiment [2], 3.34. The “RF (verapamil)” value in experiment [1] (K562/adr) was 6.38; in experiment [2], 5.49. Also, the IC50 verapamil in experiment [1] (K562/adr) came to 0.0791 ± 0.0313 µg/mL; in experiment [2] it was 0.0555 ± 0.0175 µg/mL.

For the compound `COc1cccc2c1C(=O)c1c(O)c3c(c(O)c1C2=O)C[C@@](O)(C(=O)CO)C[C@@H]3O[C@H]1C[C@H](N)[C@@H](O)[C@H](C)O1` [Epirubicin, epirubicin], the values for the IC50 (in the experiment on K562/vcr (setting [3]); in experiment [1] (setting [4]); in experiment [2] (setting [5])) were 2.56 ± 0.84 µg/mL, 1.32 ± 0.322 µg/mL and 0.988 ± 0.152 µg/mL, respectively. In the experiment with K562/vcr, the “RF (Reversal Folds)” value is given as 5.81. Moreover, the “IC50 Schisandrin B” value came to 0.44 ± 0.14 µg/mL in the experiment on K562/vcr, 0.3033 ± 0.0812 µg/mL in experiment [1] (K562/adr) and 0.1033 ± 0.0545 µg/mL in experiment [2]. For the same compound, the “RF (Schisandrin B)” value in experiment [1] (K562/adr) was found to be 4.35; in experiment [2] it was 9.56. Also, the “RF (verapamil)” value was found to be 5.95 in experiment [1] (K562/adr) and 8.06 in experiment [2]. The IC50 verapamil in experiment [1] (K562/adr) was found to be 0.2218 ± 0.0909 µg/mL; in experiment [2] it was 0.1226 ± 0.082 µg/mL.

Turning to `COC(=O)C[C@](O)(CCCC(C)(C)O)C(=O)O[C@@H]1C(OC)=C[C@]23CCCN2CCc2cc4c(cc2[C@H]13)OCO4` [Homoharringtonine], in the experiment with K562/vcr (setting [3]), the IC50 worked out at 0.55 ± 0.02 µg/mL. Moreover, in the experiment on K562/vcr, the “RF (Reversal Folds)” value came to 11 and the “IC50 Schisandrin B” value worked out at 0.050 ± 0.01 µg/mL. Moreover, in experiment [1] (setting [4]), the IC50 stood at 0.428 ± 0.108 µg/mL. Further, in experiment [1] (K562/adr), the “RF (Schisandrin B)” value is reported as 4.44, the “RF (verapamil)” value stood at 6.1, the “IC50 Schisandrin B” value amounted to 0.0964 ± 0.0312 µg/mL and the IC50 verapamil worked out at 0.0701 ± 0.0042 µg/mL. Moreover, the IC50 in experiment [2] (setting [5]) is 0.526 ± 0.199 µg/mL. In addition, in experiment [2], the “RF (Schisandrin B)” value came out at 4.94, the “RF (verapamil)” value turned out to be 4.74, the “IC50 Schisandrin B” value stood at 0.1064 ± 0.0812 µg/mL and the IC50 verapamil is 0.1108 ± 0.0076 µg/mL.

Take `CC[C@@]1(O)C(=O)OCc2c1cc1n(c2=O)Cc2cc3cc(O)ccc3nc2-1` [Hydroxycamptothecine]: in experiment [1] (K562/adr), the “RF (Schisandrin B)” value is reported as 8.84, the “RF (verapamil)” value was found to be 8.53, the “IC50 Schisandrin B” value was determined as 0.0417 ± 0.062 µg/mL and the IC50 verapamil is 0.0432 ± 0.0205 µg/mL. Also, the “IC50 Control” value in experiment [1] (setting [4]) worked out at 0.3688 ± 0.0875 µg/mL. For the same compound, in experiment [2], the “RF (Schisandrin B)” value stood at 3.07, the “RF (verapamil)” value stood at 3.48, the “IC50 Schisandrin B” value amounted to 0.0527 ± 0.0613 µg/mL and the IC50 verapamil was 0.0468 ± 0.0254 µg/mL. In experiment [2] (setting [5]), the “IC50 Control” value is 0.1618 ± 0.1501 µg/mL.

With `CN(Cc1cnc2nc(N)nc(N)c2n1)c1ccc(C(=O)N[C@@H](CCC(=O)O)C(=O)O)cc1` [Methotrexate, methotrexate], the IC50 in the experiment on K562/vcr (setting [3]) is > 10 µg/mL. In addition, the “IC50 Schisandrin B” value in the experiment with K562/vcr is >10 µg/mL.

For `O=C1c2c(O)ccc(O)c2C(=O)c2c(NCCNCCO)ccc(NCCNCCO)c21` [Mitoxantron, mitoxantron], the values for the IC50 (in the experiment on K562/vcr (setting [3]); in experiment [1] (setting [4]); in experiment [2] (setting [5])) were 0.79 ± 0.33 µg/mL, 0.105 ± 0.0356 µg/mL and 0.0906 ± 0.0456 µg/mL, respectively. Also, the “RF (Reversal Folds)” value in the experiment with K562/vcr stood at 4.0. In addition, the “IC50 Schisandrin B” value in the experiment on K562/vcr is 0.20 ± 0.06 µg/mL; in experiment [1] (K562/adr), <0.01 µg/mL; in experiment [2], <0.01 µg/mL. The results for the “RF (Schisandrin B)” value in experiment [1] (K562/adr) and in experiment [2] were >10.52 and >9.06, respectively. The figures for the “RF (verapamil)” value in experiment [1] (K562/adr) and in experiment [2] were >10.52 and >9.06, respectively. In addition, the IC50 verapamil in experiment [1] (K562/adr) and in experiment [2] was <0.01 µg/mL throughout.

With `CC(=O)O[C@H]1C(=O)[C@@]2(C)[C@H]([C@H](OC(=O)c3ccccc3)[C@]3(O)C[C@H](OC(=O)[C@H](O)[C@@H](NC(=O)c4ccccc4)c4ccccc4)C(C)=C1C3(C)C)[C@]1(OC(C)=O)CO[C@@H]1C[C@@H]2O` [Taxol, taxol], in experiment [1] (setting [4]), the IC50 came out at 0.342 ± 0.132 µg/mL. Besides, in experiment [1] (K562/adr), the “RF (Schisandrin B)” value was 17.89, the “RF (verapamil)” value is 23.94, the “IC50 Schisandrin B” value is 0.01913 ± 0.0208 µg/mL and the IC50 verapamil was found to be 0.0143 ± 0.0093 µg/mL. Besides, the IC50 in experiment [2] (setting [5]) was 0.089 ± 0.0079 µg/mL. Besides, in experiment [2], the “RF (Schisandrin B)” value worked out at 2.82, the “RF (verapamil)” value was 2.71, the “IC50 Schisandrin B” value stood at 0.0316 ± 0.0019 µg/mL and the IC50 verapamil is 0.0329 ± 0.0079 µg/mL.

Consider `CC[C@]1(O)C[C@H]2CN(CCc3c([nH]c4ccccc34)[C@@](C(=O)OC)(c3cc4c(cc3OC)N(C=O)[C@H]3[C@@](O)(C(=O)OC)[C@H](OC(C)=O)[C@]5(CC)C=CCN6CC[C@]43[C@@H]65)C2)C1` [Vincristine, vincristine], for which the IC50 in the experiment on K562/vcr (setting [3]) was > 20 µg/mL. Also, in the experiment with K562/vcr, the “RF (Reversal Folds)” value is listed as >14.9 and the “IC50 Schisandrin B” value was found to be 1.34 ± 0.08 µg/mL. The IC50 in experiment [1] (setting [4]) turned out to be 0.916 ± 0.238 µg/mL. Besides, in experiment [1] (K562/adr), the “RF (Schisandrin B)” value stood at 6.2, the “RF (verapamil)” value is 10.51, the “IC50 Schisandrin B” value is 0.1486 ± 0.0554 µg/mL and the IC50 verapamil turned out to be 0.0872 ± 0.0236 µg/mL. In experiment [2] (setting [5]), the IC50 was > 20 µg/mL. Moreover, in experiment [2], the “RF (Schisandrin B)” value was 127.2, the “RF (verapamil)” value came out at 20.26, the “IC50 Schisandrin B” value worked out at 0.1572 ± 0.0946 µg/mL and the IC50 verapamil was 0.9872 ± 0.01555 µg/mL.
